In patent US6355799B1, “Substituted benzene compounds, process for their preparation, and herbicidal and defoliant compositions containing them” (ISK Americas Incorporated, priority 1997, dated 2002):

Columns and labels:
Format in all cases: in vivo
[1] = tested on: upland rice (Oryza sp., var. Tebonnet, RICE); assay: Post-emerge test, crop safety; conditions: rating scale 0-100 (0 no damage, 100 complete death), 14 days after application
In short: (§1)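 Rating: 0–100 visual injury, 14 DAA. Application: acetone, 187 l/ha, 15–1000 g ai/ha, flat-fan track sprayer with nozzle 40–45 cm above soil or canopy. Post-emerge runs used 0.25% v/v surfactant on 2–3 leaf plants.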

[2] = tested on: field corn (Zea mays L., var. Dekalb 535, CORN); assay: Post-emerge test, crop safety; conditions: rating scale 0-100 (0 no damage, 100 complete death), 14 days after application
In short: as §1

[3] = tested on: sicklepod (Cassia obtusifolia, CASOB); assay: Post-emerge test, greenhouse herbicide activity screening; conditions: rating scale 0-100 (0 no damage, 100 complete death), 14 days after application
In short: (§2)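 Each test used a mechanized track sprayer delivering 187 l/ha of acetone solution at 15–1000 g ai/ha. Post-emerge foliage at 2–3 leaves was treated with added 0.25% v/v non-ionic surfactant and bottom-watered only. Injury was assessed on day 14, where 100 means total kill.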

[4] = tested on: lambsquarters (Chenopodium album, CHEAL); assay: as above; conditions: rating scale 0-100 (0 no damage, 100 complete death), 14 days after application
In short: as §2

[5] = tested on: green foxtail (Setaria viridis, SETVI); assay: as above; conditions: rating scale 0-100 (0 no damage, 100 complete death), 14 days after application
In short: as §2

[6] = tested on: redroot pigweed (Amaranthus retroflexus, AMARE); assay: as above; conditions: rating scale 0-100 (0 no damage, 100 complete death), 14 days after application
In short: as §2

[7] = tested on: johnsongrass (Sorghum halepense, SORHA); assay: as above; conditions: rating scale 0-100 (0 no damage, 100 complete death), 14 days after application
In short: as §2

[8] = tested on: large crabgrass (Digitaria sanguinalis, DIGSA); assay: as above; conditions: rating scale 0-100 (0 no damage, 100 complete death), 14 days after application
In short: as §2

[9] = tested on: velvetleaf (Abutilon theophrasti, ABUTH); assay: as above; conditions: rating scale 0-100 (0 no damage, 100 complete death), 14 days after application
In short: as §2

[10] = tested on: ivyleaf morningglory (Ipomoea hederacea, IPOHE); assay: as above; conditions: rating scale 0-100 (0 no damage, 100 complete death), 14 days after application
In short: as §2

[11] = tested on: barnyardgrass (Echinochloa crus-galli, ECHCG); assay: as above; conditions: rating scale 0-100 (0 no damage, 100 complete death), 14 days after application
In short: as §2

[12] = tested on: sicklepod (Cassia obtusifolia, CASOB); assay: Pre-emerge test, greenhouse herbicide activity screening; conditions: rating scale 0-100, 14 days after application
In short: (§3)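 Compounds in acetone were track-sprayed at 15–1000 g ai/ha: pre-emergence onto soil sown the previous day, then top-watered to incorporate and later bottom-watered; post-emergence onto 2–3 leaf plants with 0.25% v/v surfactant, bottom-watered only. Ratings on a 0–100 phytotoxicity scale were taken at day 14.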

[13] = tested on: lambsquarters (Chenopodium album, CHEAL); assay: as above; conditions: rating scale 0-100, 14 days after application
In short: as §3

[14] = tested on: green foxtail (Setaria viridis, SETVI); assay: as above; conditions: rating scale 0-100, 14 days after application
In short: as §3

[15] = tested on: johnsongrass (Sorghum halepense, SORHA); assay: as above; conditions: rating scale 0-100, 14 days after application
In short: as §3

[16] = tested on: large crabgrass (Digitaria sanguinalis, DIGSA); assay: as above; conditions: rating scale 0-100, 14 days after application
In short: as §3

[17] = tested on: velvetleaf (Abutilon theophrasti, ABUTH); assay: as above; conditions: rating scale 0-100, 14 days after application
In short: as §3

[18] = tested on: ivyleaf morningglory (Ipomoea hederacea, IPOHE); assay: as above; conditions: rating scale 0-100, 14 days after application
In short: as §3

[19] = tested on: barnyardgrass (Echinochloa crus-galli, ECHCG); assay: as above; conditions: rating scale 0-100, 14 days after application
In short: as §3

[20] = tested on: redroot pigweed (Amaranthus retroflexus, AMARE); assay: as above; conditions: rating scale 0-100, 14 days after application
In short: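 Compounds in acetone were track-sprayed at 15-1000 g ai/ha (187 l/ha) on sandy loam pots: pre-emerge one day after seeding, post-emerge at 2-3 leaf stage with 0.25% v/v non-ionic surfactant. Phytotoxicity was rated 14 days later on a 0 (no damage) to 100 (complete death) scale.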

[21] = tested on: upland rice (Oryza sp., var. Tebonnet, RICE); assay: Pre-emerge test, crop safety; conditions: rating scale 0-100, 14 days after application
In short: (§4)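 Sandy loam pots; pre-emerge: sown 1 d pre-spray, surface-watered after, then bottom-watered. Post-emerge: sown 8–21 d before, 2–3 leaf stage, + 0.25% v/v NIS, bottom-watered. Acetone, 187 l/ha track spray, 15–1000 g ai/ha. 0–100 injury score, day 14.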

[22] = tested on: field corn (Zea mays L., var. Dekalb 535, CORN); assay: Pre-emerge test, crop safety; conditions: rating scale 0-100, 14 days after application
In short: as §4

C#CCOC(=O)C(Cl)Cc1c(OC)c(Cl)cc(F)c1-n1c(=O)cc(C(F)(F)F)n(C)c1=O (single isomer, unassigned) [14-19]
30: Post-emerge Herbicidal Activity, phytotoxicity rating SETVI ([5]; Rate 250 g ai/ha) | Post-emerge Herbicidal Activity, phytotoxicity rating IPOHE ([10]; Rate 63 g ai/ha)
80: Pre-emerge herbicidal activity, phytotoxicity rating CHEAL ([13]; 250 g ai/ha) | Pre-emerge herbicidal activity, phytotoxicity rating DIGSA ([16]; 250 g ai/ha)
100: Post-emerge Herbicidal Activity, phytotoxicity rating CHEAL ([4]; Rate 250 g ai/ha) | Post-emerge Herbicidal Activity, phytotoxicity rating AMARE ([6]; Rate 250 g ai/ha) | Post-emerge Herbicidal Activity, phytotoxicity rating DIGSA ([8]; Rate 63 g ai/ha) | Post-emerge Herbicidal Activity, phytotoxicity rating DIGSA ([8]; Rate 250 g ai/ha) | Post-emerge Herbicidal Activity, phytotoxicity rating ABUTH ([9]; Rate 250 g ai/ha) | Post-emerge Herbicidal Activity, phytotoxicity rating ECHCG ([11]; Rate 63 g ai/ha) | Post-emerge Herbicidal Activity, phytotoxicity rating ECHCG ([11]; Rate 250 g ai/ha)
90: Post-emerge Herbicidal Activity, phytotoxicity rating CHEAL ([4]; Rate 63 g ai/ha) | Post-emerge Herbicidal Activity, phytotoxicity rating AMARE ([6]; Rate 63 g ai/ha) | Post-emerge Herbicidal Activity, phytotoxicity rating IPOHE ([10]; Rate 250 g ai/ha) | Pre-emerge herbicidal activity, phytotoxicity rating AMARE ([20]; 250 g ai/ha)
70: Post-emerge Herbicidal Activity, phytotoxicity rating CASOB ([3]; Rate 250 g ai/ha)
0: Post-emerge phytotoxicity rating RICE (crop damage) ([1]; Rate 63 g ai/ha) | Post-emerge phytotoxicity rating CORN (crop damage) ([2]; Rate 63 g ai/ha) | Post-emerge Herbicidal Activity, phytotoxicity rating SETVI ([5]; Rate 63 g ai/ha) | Post-emerge Herbicidal Activity, phytotoxicity rating SORHA ([7]; Rate 63 g ai/ha) | Post-emerge Herbicidal Activity, phytotoxicity rating SORHA ([7]; Rate 250 g ai/ha) | Pre-emerge herbicidal activity, phytotoxicity rating CASOB ([12]; 63 g ai/ha) | Pre-emerge herbicidal activity, phytotoxicity rating CASOB ([12]; 250 g ai/ha) | Pre-emerge herbicidal activity, phytotoxicity rating CHEAL ([13]; 63 g ai/ha) | Pre-emerge herbicidal activity, phytotoxicity rating SETVI ([14]; 63 g ai/ha) | Pre-emerge herbicidal activity, phytotoxicity rating SETVI ([14]; 250 g ai/ha) | Pre-emerge herbicidal activity, phytotoxicity rating SORHA ([15]; 63 g ai/ha) | Pre-emerge herbicidal activity, phytotoxicity rating SORHA ([15]; 250 g ai/ha) | Pre-emerge herbicidal activity, phytotoxicity rating DIGSA ([16]; 63 g ai/ha) | Pre-emerge herbicidal activity, phytotoxicity rating ABUTH ([17]; 63 g ai/ha) | Pre-emerge herbicidal activity, phytotoxicity rating IPOHE ([18]; 63 g ai/ha) | Pre-emerge herbicidal activity, phytotoxicity rating IPOHE ([18]; 250 g ai/ha) | Pre-emerge herbicidal activity, phytotoxicity rating ECHCG ([19]; 63 g ai/ha) | Pre-emerge herbicidal activity, phytotoxicity rating ECHCG ([19]; 250 g ai/ha) | Pre-emerge herbicidal activity, phytotoxicity rating AMARE ([20]; 63 g ai/ha) | Pre-emerge phytotoxicity rating, crop damage RICE ([21]; 63 g ai/ha) | Pre-emerge phytotoxicity rating, crop damage RICE ([21]; 250 g ai/ha) | Pre-emerge phytotoxicity rating, crop damage CORN ([22]; 63 g ai/ha) | Pre-emerge phytotoxicity rating, crop damage CORN ([22]; 250 g ai/ha)
60: Post-emerge Herbicidal Activity, phytotoxicity rating ABUTH ([9]; Rate 63 g ai/ha)
40: Post-emerge phytotoxicity rating CORN (crop damage) ([2]; Rate 250 g ai/ha) | Post-emerge Herbicidal Activity, phytotoxicity rating CASOB ([3]; Rate 63 g ai/ha)
20: Post-emerge phytotoxicity rating RICE (crop damage) ([1]; Rate 250 g ai/ha)
50: Pre-emerge herbicidal activity, phytotoxicity rating ABUTH ([17]; 250 g ai/ha)
